Source: patent publication US10770169B2, “Method of providing a treatment to a subject based on a dynamic pathway map” (THE REGENTS OF THE UNIVERSITY OF CALIFORNIA, priority 2010, dated 2020)
Where two headings read alike, the source gives them in different places.

System: panel of 55 breast cancer cell lines
Experiment: Cell growth inhibition assay (Cell Titer Glo, 72 h, 9 doses; GI50, TGI, LC50)
Assay type: cell-based, human
Conditions: for GI50: Homo sapiens, read-out: GI50 (converted)

CC(=O)O[C@H]1C(=O)[C@@]2(C)[C@H]([C@H](OC(=O)c3ccccc3)[C@]3(O)C[C@H](OC(=O)[C@H](O)[C@@H](NC(=O)c4ccccc4)c4ccccc4)C(C)=C1C3(C)C)[C@]1(OC(C)=O)CO[C@@H]1C[C@@H]2O [Paclitaxel]
GI50 (600MPE cell line, censored GI50 values): 66.1 nM
GI50 (AU565, AU565 cell line, censored GI50 values): 8.13 nM
GI50 (AU565, cell line AU565): 8.13 nM
GI50 (BT-474, BT474 cell line, censored GI50 values): 10.2 nM
GI50 (BT-474, cell line BT474): 10.2 nM
GI50 (BT-483, BT483 cell line, censored GI50 values): 34.7 nM
GI50 (BT-483, cell line BT483): 34.7 nM
GI50 (CAMA-1, CAMA1 cell line, censored GI50 values): 11.2 nM
GI50 (CAMA-1, cell line CAMA1): 11.2 nM
GI50 (HCC38, cell line HCC38): 7.41 nM
GI50 (HCC70, cell line HCC70): 8.13 nM
GI50 (HCC202, cell line HCC202): 7.94 nM
GI50 (HCC1143, HCC1143 cell line, censored GI50 values): 17 nM
GI50 (HCC1143, cell line HCC1143): 17 nM
GI50 (HCC1187, HCC1187 cell line, censored GI50 values): 8.91 nM
GI50 (HCC1187, cell line HCC1187): 8.91 nM
GI50 (HCC1395, HCC1395 cell line, censored GI50 values): 15.8 nM
GI50 (HCC1395, cell line HCC1395): 15.8 nM
GI50 (HCC1419, HCC1419 cell line, censored GI50 values): 692 nM
GI50 (HCC1419, cell line HCC1419): 692 nM
GI50 (HCC1428, HCC1428 cell line, censored GI50 values): 16600 nM
GI50 (HCC1428, cell line HCC1428): 16600 nM
GI50 (HCC1500, HCC1500 cell line, censored GI50 values): 7.94 nM
GI50 (HCC1500, cell line HCC1500): 7.94 nM
GI50 (HCC1806, HCC1806 cell line, censored GI50 values): 8.71 nM
GI50 (HCC1806, cell line HCC1806): 8.71 nM
GI50 (HCC1954, HCC1954 cell line, censored GI50 values): 7.08 nM
GI50 (HCC1954, cell line HCC1954): 7.08 nM
GI50 (MCF7, cell line MCF7): 16.2 nM
GI50 (MDA-MB-231, cell line MDAMB231): 5.25 nM
GI50 (MDA-MB-361, cell line MDAMB361): 13.2 nM
GI50 (MDA-MB-415, cell line MDAMB415): 5.25 nM
GI50 (MDA-MB-436, cell line MDAMB436): 42.7 nM
GI50 (MDA-MB-453, cell line MDAMB453): 10.2 nM
GI50 (MDA-MB-468, cell line MDAMB468): 8.71 nM
GI50 (SK-BR-3, cell line SKBR3): 11.2 nM
GI50 (SUM52PE, cell line SUM52PE): 4.9 nM
GI50 (SUM149PT, cell line SUM149PT): 9.33 nM
GI50 (SUM185PE, cell line SUM185PE): 24 nM
GI50 (SUM-159-PT, cell line SUM159PT): 15.1 nM
GI50 (UACC-812, cell line UACC812): 9.12 nM
GI50 (UACC-893, cell line UACC893): 11.7 nM
GI50 (ZR-75-1, cell line ZR751): 27.5 nM
GI50 (ZR-75-30, cell line ZR7530): 21.9 nM
GI50 (ZR-75B, cell line ZR75B): 7.94 nM
GI50 (cell line 600MPE): 66.1 nM
GI50 (cell line HCC2185): 7.24 nM
GI50 (cell line HCC3153): 20 nM
GI50 (cell line LY2): 10.5 nM
GI50 (cell line MDAMB134V): 10 nM
GI50 (cell line MDAMB175V): 19.5 nM
GI50 (cell line SUM1315MO): 6.17 nM

O=c1cc(-c2ccccc2)oc2cc(O)c(O)c(O)c12 [baicalein]
variability in cell line response (across the cell line panel): variability in cell line response was minimal
